Measurements from publication PMC12396409, “Screening and hit evaluation of a microbial metabolite library against the pathogenic Plasmodium falciparum and Toxoplasma gondii parasites” (International Journal for Parasitology: Drugs and Drug …, 2025).
Where two headings read alike, the source gives them in different places. *1 amine or outer side, *2 acyl side, *3 side chain or, on linkers, in order; H or OH if unused. Where a SMILES comes first, the peptide text is derived from it. Bridges are numbered along the chain shown (N, C = ends). [ ]: non-standard residue; d: D form. The star is where a group is joined. hTyr(3S-OH,4S-OH,3'-OSO3H) = N[C@H](C(=O)O)[C@H](O)[C@@H](O)c1ccc(O)c(OS(=O)(=O)O)c1; Orn(4R-OH,5R-OH) = O=C([C@H](C[C@@H](O)[C@@H](O)N[*:3])N[*:1])[*:2]; Pro(3S-OH,4S-Me) = C[C@H]1CN[C@H](C(=O)O)[C@H]1O; Gln(3R-OH) = NC(=O)C[C@@H](O)[C@H](N)C(=O)O; Palmitoyl = CCCCCCCCCCCCCCCC(=O)*; Hyp = O=C(O)[C@@H]1C[C@@H](O)CN1; X2 = CCCCCCCCCCCC(O)CC(=O)*; GABA = NCCCC(=O)O

Assays:
[1] = tested on: P. falciparum 3D7 parasites; assay: P. falciparum growth inhibition assay, 1-cycle (72 h treatment), SYBR DNA staining (library screen at 2 μg/mL and dose-response); type: cell-based, Plasmodium falciparum; conditions: for activity at 2 µg/mL: Plasmodium falciparum, 3D7
[2] = tested on: P. falciparum 3D7 parasites; assay: P. falciparum growth inhibition assay, 2-cycle (120 h treatment), delayed-death screen and dose-response; type: cell-based, Plasmodium falciparum; conditions: for activity at 2 µg/mL: Plasmodium falciparum, 3D7
[3] = tested on: T. gondii RH strain (RH-Tub-eYFP) tachyzoites; assay: microbe, parasite or virus in culture; type: cell-based, Toxoplasma gondii; conditions: for Tg_72h_%Growth_Rep1 / Tg_72h_%Growth_Rep2 / percent parasite growth at 2 µg/mL: 72 h; for percent parasite growth at 2 µg/mL: Toxoplasma gondii
[4] = library screen at 2 μg/mL, 72 h, % growth, replicate 1
[5] = library screen at 2 μg/mL, 72 h, % growth, replicate 2
[6] = library screen at 2 μg/mL, 120 h, % growth, replicate 1
[7] = library screen at 2 μg/mL, 120 h, % growth, replicate 2
[8] = library screen at 2 μg/mL, % growth, replicate 1
[9] = library screen at 2 μg/mL, % growth, replicate 2
[10] = library screen at 2 μg/mL, 72 h, % growth, replicate 1, read-out: Pf_72h_%Growth_Rep1
[11] = library screen at 2 μg/mL, 72 h, % growth, replicate 2, read-out: Pf_72h_%Growth_Rep2
[12] = library screen at 2 μg/mL, 120 h, % growth, replicate 1, read-out: Pf_120h_%Growth_Rep1
[13] = library screen at 2 μg/mL, 120 h, % growth, replicate 2, read-out: Pf_120h_%Growth_Rep2
[14] = library screen at 2 μg/mL, % growth, replicate 1, read-out: Tg_72h_%Growth_Rep1
[15] = library screen at 2 μg/mL, % growth, replicate 2, read-out: Tg_72h_%Growth_Rep2
[16] = P. falciparum, 72 h, screen at 2 μg/mL, replicate 1
[17] = P. falciparum, 72 h, screen at 2 μg/mL, replicate 2
[18] = P. falciparum, 120 h, screen at 2 μg/mL, replicate 1
[19] = P. falciparum, 120 h, screen at 2 μg/mL, replicate 2
[20] = T. gondii, screen at 2 μg/mL, replicate 1
[21] = T. gondii, screen at 2 μg/mL, replicate 2
[22] = active against the parasite at 2 μg/mL, no anti-tumour (NS-1) or cytotoxic (fibroblast) activity at 5 μg/mL

O=C(/C=C/C=C/C=C/C1CCCCC1)NC1=C[C@@](O)(/C=C/C=C/C=C/C(=O)NC2=C(O)CCC2=O)[C@@H]2O[C@@H]2C1=O [Asukamycin]
Pf_72h_%Growth_Rep1 [1, 4]: 79.58%
Pf_72h_%Growth_Rep2 [1, 5]: 78.85%
Pf_120h_%Growth_Rep1 [2, 6]: 67.03%
Pf_120h_%Growth_Rep2 [2, 7]: 82.56%
Tg_72h_%Growth_Rep1 [3, 8]: 161.41%
Tg_72h_%Growth_Rep2 [3, 9]: 93.58%

C[C@@H](O)[C@H]1C(=O)N2C(C(=O)O)=C(S[C@@H]3CN[C@H](CNS(N)(=O)=O)C3)[C@H](C)[C@H]12 [Doripenem]
activity at 2 µg/mL [1, 10]: 81.9%
activity at 2 µg/mL [1, 11]: 66.8%
activity at 2 µg/mL [2, 12]: 85.1%
activity at 2 µg/mL [2, 13]: 121%
percent parasite growth at 2 µg/mL [3, 14]: 119%
percent parasite growth at 2 µg/mL [3, 15]: 89.3%

C[C@H]1CCC/C=C/C(=O)c2c(O)cc(O)cc2CC(=O)O1 [Dehydrocurvularin, 10,11-]
Pf_72h_%Growth_Rep1 [1, 16]: 4.73%
Pf_72h_%Growth_Rep2 [1, 17]: 1.02%
Pf_120h_%Growth_Rep1 [2, 18]: 13.56%
Pf_120h_%Growth_Rep2 [2, 19]: 16.52%
Tg_72h_%Growth_Rep1 [3, 20]: 4.20%
Tg_72h_%Growth_Rep2 [3, 21]: 2.39%

CC(C)C[C@@H]1NC(=O)[C@@H](C(C)C)NC(=O)[C@@H](C)NC(=O)CCCNC(=O)[C@@H](Cc2c[nH]c3ccccc23)NC(=O)[C@@H](C)NC(=O)[C@@H](C(C)C)NC1=O [Unguisin B] (cyclo([GABA][dA][dV]L[dV][dA][dW]))
Pf_72h_%Growth_Rep1 [1, 16]: 89.12%
Pf_72h_%Growth_Rep2 [1, 17]: 119.76%
Pf_120h_%Growth_Rep1 [2, 18]: 112.33%
Pf_120h_%Growth_Rep2 [2, 19]: 102.07%
Tg_72h_%Growth_Rep1 [3, 20]: 121.22%
Tg_72h_%Growth_Rep2 [3, 21]: 81.61%

CC(=O)O[C@@H]1/C=C\[C@@](C)(O)C(=O)[C@@H](C)C/C=C\[C@H]2[C@H](O)C(C)=C(C)[C@H]3C(Cc4ccccc4)NC(=O)[C@]132 (some centres unmarked) [cytochalasin C]
Pf_72h_%Growth_Rep1 [1, 16]: 7.71%
Pf_72h_%Growth_Rep2 [1, 17]: 8.08%
selectivity for P. falciparum in the screens [1, 22]: active selectively against P. falciparum and T. gondii
Pf_120h_%Growth_Rep1 [2, 18]: 12.52%
Pf_120h_%Growth_Rep2 [2, 19]: 10.45%
Tg_72h_%Growth_Rep1 [3, 20]: 0.57%
Tg_72h_%Growth_Rep2 [3, 21]: 15.53%
selectivity for T. gondii in the screens [3, 22]: active selectively against P. falciparum and T. gondii

Cc1cc(O)c(C=O)c2c1C(=O)Oc1c(COC(=O)/C=C/C(=O)O)c(O)c(C(=O)O)c(C)c1O2 [Fumarprotocetraric acid]
activity at 2 µg/mL [1, 10]: 84.6%
activity at 2 µg/mL [1, 11]: 90.2%
activity at 2 µg/mL [2, 12]: 102%
activity at 2 µg/mL [2, 13]: 100%
percent parasite growth at 2 µg/mL [3, 14]: 126%
percent parasite growth at 2 µg/mL [3, 15]: 103%

CCCCCCCCCCCC(O)CC(=O)NC(CC(C)C)C(=O)NC(CCC(=O)O)C(=O)NC1C(=O)NC(C(C)C)C(=O)NC(CC(C)C)C(=O)NC(CO)C(=O)NC(CC(C)C)C(=O)NC(CC(C)C)C(=O)NC(CO)C(=O)NC(C(C)C)C(=O)OC1C (centres unmarked) [BIA-O1431] (X2-LETVLSLLSV; ester 3-C; configuration not given here)
Pf_72h_%Growth_Rep1 ([1]; P. falciparum 3D7, 72 h, parasite screen at 2 μg/mL, % growth, replicate 1): 80.05%
Pf_72h_%Growth_Rep2 ([1]; P. falciparum 3D7, 72 h, parasite screen at 2 μg/mL, % growth, replicate 2): 103.50%
Pf_120h_%Growth_Rep1 ([2]; P. falciparum 3D7, 120 h, parasite screen at 2 μg/mL, % growth, replicate 1): 94.38%
Pf_120h_%Growth_Rep2 ([2]; P. falciparum 3D7, 120 h, parasite screen at 2 μg/mL, % growth, replicate 2): 109.58%
Tg_72h_%Growth_Rep1 ([3]; T. gondii, parasite screen at 2 μg/mL, % growth, replicate 1): 138.54%
Tg_72h_%Growth_Rep2 ([3]; T. gondii, parasite screen at 2 μg/mL, % growth, replicate 2): 91.95%

CCCCCCCCCCCCCCCC(=O)N[C@H]1C[C@@H](O)[C@@H](O)NC(=O)[C@@H]2[C@@H](O)[C@@H](C)CN2C(=O)[C@H]([C@H](O)CC(N)=O)NC(=O)[C@H]([C@H](O)[C@@H](O)c2ccc(O)c(OS(=O)(=O)O)c2)NC(=O)[C@@H]2C[C@@H](O)CN2C(=O)[C@H]([C@@H](C)O)NC1=O [FR 901379] (Palmitoyl-[Orn(4R-OH,5R-OH)]T[Hyp][hTyr(3S-OH,4S-OH,3'-OSO3H)][Gln(3R-OH)][Pro(3S-OH,4S-Me)]; lactam 1-C)
Pf_72h_%Growth_Rep1 [1, 4]: 84.19%
Pf_72h_%Growth_Rep2 [1, 5]: 83.86%
Pf_120h_%Growth_Rep1 [2, 6]: 96.37%
Pf_120h_%Growth_Rep2 [2, 7]: 99.58%
Tg_72h_%Growth_Rep1 [3, 8]: 119.40%
Tg_72h_%Growth_Rep2 [3, 9]: 105.49%

C=C(NC(=O)C(=C)NC(=O)c1ccc2c(n1)-c1coc(n1)C(=C)NC(=O)C(=C)NC(=O)c1nc(oc1C)C(=C)NC(=O)C(C(C)(C)O)NC(=O)C(=C)NC(=O)c1coc(n1)/C(=C/C)NC(=O)[C@H]([C@@H](C)O)NC(=O)c1csc-2n1)C(N)=O (some centres unmarked) [Geninthiocin]
Pf_72h_%Growth_Rep1 [1, 4]: 87.80%
Pf_72h_%Growth_Rep2 [1, 5]: 33.98%
Pf_120h_%Growth_Rep1 [2, 6]: 87.82%
Pf_120h_%Growth_Rep2 [2, 7]: 106.01%
Tg_72h_%Growth_Rep1 [3, 8]: 124.28%
Tg_72h_%Growth_Rep2 [3, 9]: 90.80%

COc1cc(/C=N/O)nc(-c2ccccn2)c1 [Caerulomycin]
Pf_72h_%Growth_Rep1 [1, 16]: 5.29%
Pf_72h_%Growth_Rep2 [1, 17]: 5.34%
Pf_120h_%Growth_Rep1 [2, 18]: 2.50%
Pf_120h_%Growth_Rep2 [2, 19]: -6.36%
Tg_72h_%Growth_Rep1 [3, 20]: 2.08%
Tg_72h_%Growth_Rep2 [3, 21]: 0.20%
